In ChEMBL document CHEMBL4673326, “Ligand-based optimization and biological evaluation of N-(2,2,2-trichloro-1-(3-phenylthioureido)ethyl)acetamide derivatives as potent intrinsically disordered protein c-Myc inhibitors” (Bioorg Med Chem Lett, 2021):
Activity calls are given as the source filed them. The rule behind the calls is not given here.

Target: c-Myc/c-Max (Homo sapiens, UniProt P01106)
Experiment: (§1) Inhibition of Nanoluc-tagged c-Myc/Halo-tagged MAX (unknown origin) interaction expressed in HEK293T cells assessed as degradation measured after 4 to 6 hrs by NanoBRET assay
Assay type: cell-based
Conditions: not given

c-Myc/c-Max, sequence (P01106 whole entry): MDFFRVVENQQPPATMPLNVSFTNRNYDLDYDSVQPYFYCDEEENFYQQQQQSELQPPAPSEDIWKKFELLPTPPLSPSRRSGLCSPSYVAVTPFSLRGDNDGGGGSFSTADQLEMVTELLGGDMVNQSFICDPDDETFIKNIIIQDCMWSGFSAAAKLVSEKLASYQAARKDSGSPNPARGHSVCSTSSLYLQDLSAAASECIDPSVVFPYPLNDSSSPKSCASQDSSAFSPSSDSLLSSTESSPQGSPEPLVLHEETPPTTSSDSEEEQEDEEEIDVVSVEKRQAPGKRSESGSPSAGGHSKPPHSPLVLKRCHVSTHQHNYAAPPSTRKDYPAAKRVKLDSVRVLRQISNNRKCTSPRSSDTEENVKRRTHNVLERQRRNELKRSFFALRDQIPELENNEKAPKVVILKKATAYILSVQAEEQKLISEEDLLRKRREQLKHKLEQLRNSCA
c-Myc/c-Max, sequence (P61244 whole entry, further chain): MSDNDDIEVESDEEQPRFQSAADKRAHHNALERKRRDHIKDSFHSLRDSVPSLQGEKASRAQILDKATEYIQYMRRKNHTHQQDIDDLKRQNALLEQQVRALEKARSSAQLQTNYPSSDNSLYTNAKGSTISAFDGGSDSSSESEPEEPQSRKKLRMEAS

Row | EC50 [µM] | SMILES
1 | 29.1 | O=C(NC(NC(=S)Nc1ccc(I)cc1)C(Cl)(Cl)Cl)c1cccc(I)c1 (stereo not drawn)

Target: c-Myc/c-Max (Homo sapiens) (UniProt P01106+P61244)
Sequence (P01106 whole entry): as the sequence (P01106 whole entry) above
Sequence (P61244 2-160 partner limits assumed): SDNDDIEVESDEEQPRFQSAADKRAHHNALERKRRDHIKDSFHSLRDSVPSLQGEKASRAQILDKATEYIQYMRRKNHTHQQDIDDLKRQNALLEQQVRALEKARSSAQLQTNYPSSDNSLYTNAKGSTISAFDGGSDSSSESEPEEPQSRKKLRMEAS
Experiment: as §1
Assay type: cell-based
Conditions: time 4-6 hrs

Row | inhibition | SMILES
2 | Dose-dependent effect | O=C(NC(NC(=S)Nc1ccc(I)cc1)C(Cl)(Cl)Cl)c1cccc(I)c1 (stereo not drawn)

Test system: HL-60
Experiment: Antiproliferative activity against human HL-60 cells assessed as inhibition of cell proliferation incubated for 72 hrs
Assay type: functional, cell-based
Conditions: HL-60, 72 h

Row | SMILES | EC50 [µM]
3 | CC(C)C(=O)NC(NC(=S)Nc1ccc(Cl)cc1)C(Cl)(Cl)Cl (stereo not drawn) | > 100
4 | O=C(CF)NC(NC(=S)Nc1ccc(Cl)cc1)C(Cl)(Cl)Cl (stereo not drawn) | 24.8
5 | CC(=O)Nc1ccc(NC(=S)NC(NC(=O)c2ccccc2C)C(Cl)(Cl)Cl)cc1 (stereo not drawn) | > 50
6 | O=C(NC(NC(=S)Nc1ccc(Cl)cc1)C(Cl)(Cl)Cl)c1ccccc1Cl (stereo not drawn) | 5.9
7 | Cc1ccc(C(=O)NC(NC(=S)Nc2cc(C(F)(F)F)ccc2Cl)C(Cl)(Cl)Cl)cc1 (stereo not drawn) | 8.7
8 | O=C(NC(NC(=S)Nc1ccccc1)C(Cl)(Cl)Cl)OCc1ccccc1 (stereo not drawn) | 16.7
9 | CCCCCC(=O)NC(NC(=S)Nc1ccc(C)cc1)C(Cl)(Cl)Cl (stereo not drawn) | > 50
10 | COC(=O)c1ccccc1NC(=S)NC(NC(=O)c1ccc(C)cc1)C(Cl)(Cl)Cl (stereo not drawn) | 23.1
11 | CCOC(=O)NC(NC(=S)Nc1c(Cl)cc(Cl)cc1Cl)C(Cl)(Cl)Cl (stereo not drawn) | 42.8
12 | CC(=O)NC(NC(=S)Nc1c(Cl)cc(Cl)cc1Cl)C(Cl)(Cl)Cl (stereo not drawn) | 24
13 | CCCCCCCCC(=O)NC(NC(=S)Nc1ccccc1C)C(Cl)(Cl)Cl (stereo not drawn) | > 100
14 | Cc1ccccc1C(=O)NC(NC(=S)Nc1ccccc1)C(Cl)(Cl)Cl (stereo not drawn) | 10.8
15 | Cc1ccc(NC(=S)NC(NC(=O)CC(C)C)C(Cl)(Cl)Cl)cc1 (stereo not drawn) | 33.7
16 | O=C(CF)NC(NC(=S)Nc1ccccc1Cl)C(Cl)(Cl)Cl (stereo not drawn) | > 50
17 | COc1ccccc1NC(=S)NC(NC=O)C(Cl)(Cl)Cl (stereo not drawn) | > 100
18 | Cc1ccccc1N=C(S)NC(NC(=O)CF)C(Cl)(Cl)Cl (stereo not drawn) | > 100
19 | Cc1ccc(NC(S)=NC(NC(=O)N(C)C)C(Cl)(Cl)Cl)cc1 (stereo not drawn) | > 50
20 | Cc1cccc(NC(=S)NC(NC(=O)CF)C(Cl)(Cl)Cl)c1 (stereo not drawn) | > 100
21 | Cc1ccccc1C(=O)NC(NC(=S)Nc1ccccc1I)C(Cl)(Cl)Cl (stereo not drawn) | 13.8
22 | CCOC(=O)NC(NC(=S)Nc1ccc(C)cc1)C(Cl)(Cl)Cl (stereo not drawn) | > 50
23 | Cc1ccccc1C(=O)NC(NC(=S)Nc1ccc(Cl)c(Cl)c1)C(Cl)(Cl)Cl (stereo not drawn) | 4.5
24 | CCOC(=O)NC(NC(=S)Nc1ccc(I)cc1)C(Cl)(Cl)Cl (stereo not drawn) | 9.9
25 | COC(=O)c1ccc(NC(=S)NC(NC(=O)c2ccccc2C)C(Cl)(Cl)Cl)cc1 (stereo not drawn) | 14.3

More lines, now with the values ahead:

Row | EC50 [µM] | SMILES
26 | 4.2 | Cc1ccc(NC(=S)NC(NC(=O)c2ccccc2)C(Cl)(Cl)Cl)cc1 (stereo not drawn)
27 | 7.3 | COC(=O)c1ccc(NC(=S)NC(NC(=O)c2cccc3ccccc23)C(Cl)(Cl)Cl)cc1 (stereo not drawn)
28 | 10.6 | Cc1cccc(NC(=S)NC(NC(=O)c2ccccc2)C(Cl)(Cl)Cl)c1 (stereo not drawn)
29 | 32.5 | O=C(Cc1ccccc1)NC(NC(=S)Nc1ccc(Cl)c(Cl)c1)C(Cl)(Cl)Cl (stereo not drawn)
30 | 5 | O=C(NC(NC(=S)Nc1ccc(Cl)cc1)C(Cl)(Cl)Cl)c1ccccc1 (stereo not drawn)
31 | 6.9 | O=C(NC(NC(=S)Nc1cccc2ccccc12)C(Cl)(Cl)Cl)OCc1ccccc1 (stereo not drawn)
32 | 6.1 | O=C(NC(NC(=S)Nc1ccc(Br)cc1)C(Cl)(Cl)Cl)OCc1ccccc1 (stereo not drawn)
33 | 24.9 | Cc1ccc(NC(=S)NC(NC(=O)OCc2ccccc2)C(Cl)(Cl)Cl)cc1 (stereo not drawn)
34 | 3.4 | O=C(/C=C/c1ccccc1)NC(NC(=S)Nc1cccc2ccccc12)C(Cl)(Cl)Cl (stereo not drawn)
35 | > 50 | O=C(NCNC(=S)Nc1ccc(Cl)cc1)c1ccccc1
36 | 10.6 | O=C(NC(NC(=S)Nc1ccc(Cl)cc1Cl)C(Cl)(Cl)Cl)OCc1ccccc1 (stereo not drawn)
37 | 3.3 | O=C(NC(NC(=S)Nc1ccc(I)cc1)C(Cl)(Cl)Cl)c1cccc(I)c1 (stereo not drawn)
38 | 8.3 | O=C(NC(NC(=S)Nc1cccc(Cl)c1)C(Cl)(Cl)Cl)OCc1ccccc1 (stereo not drawn)
39 | > 100 | Cc1cccc(NC(=S)NC(NC(=O)Cc2ccccc2)C(Cl)(Cl)Cl)c1 (stereo not drawn)
40 | 10.2 | COC(=O)c1ccc(NC(=S)NC(NC(=O)OCc2ccccc2)C(Cl)(Cl)Cl)cc1 (stereo not drawn)
41 | 22.9 | Cc1cccc(NC(=S)NC(NC(=O)c2ccccc2C)C(Cl)(Cl)Cl)c1 (stereo not drawn)
42 | 11.7 | O=C(NC(NC(=S)Nc1ccc(F)cc1)C(Cl)(Cl)Cl)OCc1ccccc1 (stereo not drawn)
43 | 8.2 | O=C(NC(NC(=S)Nc1ccc(Cl)c(Cl)c1)C(Cl)(Cl)Cl)OCc1ccccc1 (stereo not drawn)
44 | 8.1 | Cc1ccc(N=C(S)NC(NC(=O)c2ccccc2)C(Cl)(Cl)Cl)c(C)c1 (stereo not drawn)
45 | 9.1 | O=C(NC(NC(=S)Nc1ccc(Cl)cc1Cl)C(Cl)(Cl)Cl)c1ccccc1 (stereo not drawn)
46 | 6.1 | O=C(NC(NC(=S)Nc1ccc(Cl)cc1)C(Cl)(Cl)Cl)OCc1ccccc1 (stereo not drawn)
47 | > 50 | NS(=O)(=O)c1ccc(NC(=S)NC(NC(=O)c2ccccc2)C(Cl)(Cl)Cl)cc1 (stereo not drawn)
48 | 17.2 | Cc1ccc(NC(=S)NC(NC(=O)c2ccc(Br)cc2)C(Cl)(Cl)Cl)cc1 (stereo not drawn)
49 | > 50 | COc1ccc(NC(=S)NC(NC(=O)Cc2ccccc2)C(Cl)(Cl)Cl)cc1 (stereo not drawn)
50 | > 50 | Cc1ccc(NC(=S)NC(NC(=O)Cc2ccccc2)C(Cl)(Cl)Cl)cc1 (stereo not drawn)
51 | > 50 | COc1ccc(NC(=S)NC(NC(=O)OCc2ccccc2)C(Cl)(Cl)Cl)cc1 (stereo not drawn)

Test system: not listed separately
Experiment: Antiproliferative activity against rat TGR-1 harboring c-Myc assessed as reduction in cell viability measured on day 3 by MTT assay
Assay type: functional
Conditions: TGR1, 72 h

Row | SMILES | EC50 [µM]
52 | CCOC(=O)c1cnn(-c2ccccc2)c1NC(=O)c1cc2nc(-c3ccco3)cc(C(F)(F)Cl)n2n1 | 0.25

Test system: HL-60
Experiment: Cell cycle arrest in human HL-60 cells assessed as accumulation at S-phase at 3.125 to 6.25 uM measured after 24 hrs by propidium iodide staining based flow cytometry
Assay type: functional
Conditions: dose 3.125-6.25 µM

Row | SMILES | Activity
53 | O=C(NC(NC(=S)Nc1ccc(I)cc1)C(Cl)(Cl)Cl)c1cccc(I)c1 (stereo not drawn) | Active

Target: Myc proto-oncogene protein (Homo sapiens) (UniProt P01106)
Sequence (P01106 whole entry): as the sequence (P01106 whole entry) above
Experiment: Induction of c-Myc degradation in human HL-60 cells assesses as decrease in c-Myc protein level measured after 24 hrs by Western blot analysis
Assay type: cell-based
Conditions: dose 3.125-25 µM

Row | Activity | SMILES
54 | Dose-dependent effect | O=C(NC(NC(=S)Nc1ccc(I)cc1)C(Cl)(Cl)Cl)c1cccc(I)c1 (stereo not drawn)

Test system: HL-60
Experiment: Induction of apoptosis in human HL-60 cells at 1 to 20 uM measured after 24 hrs by FITC-Annexin-v/propidium iodide staining based flow cytometry
Assay type: functional, cell-based
Conditions: dose 1-20 µM

Row | SMILES | Activity
55 | O=C(NC(NC(=S)Nc1ccc(I)cc1)C(Cl)(Cl)Cl)c1cccc(I)c1 (stereo not drawn) | Active

Test system: Daudi
Experiment: Antiproliferative activity against human Daudi assessed as reduction in cell viability measured after 2 hrs
Assay type: functional, cell-based
Conditions: not given

Row | EC50 [µM] | SMILES
56 | 0.5 | CCOc1ccc2nc3cc(/N=N/c4ccc(N)nc4N)ccc3c(N)c2c1

Test system: ST486
Experiment: Antiproliferative activity against human ST486 assessed as reduction in cell viability measured after 2 hrs
Assay type: functional, cell-based
Conditions: ST486, 2 h

Row | SMILES | EC50 [µM]
57 | CCOc1ccc2nc3cc(/N=N/c4ccc(N)nc4N)ccc3c(N)c2c1 | 0.5

Test system: not listed separately
Experiment: Antiproliferative activity against human Mutu-1 assessed as reduction in cell viability measured after 2 hrs
Assay type: functional
Conditions: Mutu-1, 2 h

Row | SMILES | EC50 [µM]
58 | CCOc1ccc2nc3cc(/N=N/c4ccc(N)nc4N)ccc3c(N)c2c1 | 0.5
